Data published in publication PMC7099625, “Exploration of thiaheterocyclic hHDAC6 inhibitors as potential antiplasmodial agents” (Future Medicinal Chemistry, 2017).
Read-outs that look alike come from different tables or passages of the source.

Key:
[1] = system: Chinese Hamster Ovary (CHO) cells; assay: MTT in vitro cytotoxicity assay; type: cell-based; conditions: triplicate on one occasion
Description: Test samples were screened for in vitro cytotoxicity against a mammalian cell-line, Chinese Hamster Ovary (CHO), using the 3-(4,5-dimethylthiazol-2-yl)-2,5-diphenyltetrazoliumbromide (MTT)-assay. The MTT-assay is used as a colorimetric assay for cellular growth and survival, and compares well with other available assays. The tetrazolium salt MTT was used to measure all growth and chemosensitivity. The test samples were tested in triplicate on one occasion. The same stock solutions prepared for antiplasmodial evaluation were used for cytotoxicity testing. Test compounds were stored at -20°C until use. Dilutions were prepared on the day of the experiment. Emetine was used as the reference drug in all experiments. The starting concentration was 100 μg/ml, which was serially diluted in complete medium with tenfold dilutions to give six concentrations, the lowest being 0.001 μg/ml. […] The IC50 values were obtained from full dose–response curves, using a nonlinear dose–response curve fitting analysis via GraphPad Prism v.4 software. […]

P. falciparum (Dd2) = assay: Antiplasmodial parasite lactate dehydrogenase assay, chloroquine-resistant strain Dd2; type: cell-based, Plasmodium falciparum; conditions: read-out: IC50 Dd2
Description: (§1) Continuous in vitro cultures of asexual erythrocyte stages of P. falciparum were maintained using a modified method of Trager and Jensen. Quantitative assessment of antiplasmodial activity in vitro was determined via the parasite lactate dehydrogenase assay using a modified method described by Makler. The test samples were prepared to a 20 mg/ml stock solution in 100% DMSO. Stock solutions were stored at -20°C. Further dilutions were prepared in complete medium on the day of the experiment. CQ and artesunate were used as the reference drugs. A full dose–response was performed to determine the concentration inhibiting 50% of parasite growth (IC50 value). Test samples were tested at a starting concentration of 100 μg/ml, which was then serially diluted twofold in complete medium to give 10 concentrations; with the lowest concentration being 0.2 μg/ml. The same dilution technique was used for all samples. References were tested at a starting concentration of 1 μg/ml.
(§2) The antiplasmodial activity of this set of structures was first determined through a modified parasite lactate dehydrogenase assay against a CQ-sensitive (CQS) strain of P. falciparum (NF54). […] Finally, a selectivity index (SI = IC50 CHO/IC50 NF54) and a resistance index (RI = IC50 Dd2/IC50 NF54) was calculated to be able to easily compare the therapeutic window (active concentration vs toxic concentration) and sensitivity toward resistance developing.

P. falciparum (NF54) = assay: Antiplasmodial parasite lactate dehydrogenase assay, chloroquine-sensitive strain NF54; type: cell-based, Plasmodium falciparum; conditions: read-out: IC50 NF54
Description: as §1, §2

hHDAC6 = system: hHDAC6; set-up: method as in PMID 23538448, PMID 25994553, PMID 26822143, PMID 27717044; conditions: hHDAC6 inhibition, previously described; read-out: IC50 HDAC6; cited from earlier work
[2] = chloroquine-resistant (CQR) P. falciparum strain Dd2, asexual erythrocyte stages, pLDH assay
[3] = chloroquine-sensitive (CQS) P. falciparum strain NF54, asexual erythrocyte stages, pLDH assay

| Structure (SMILES) | IC50 (P. falciparum (Dd2); [2]) [µM] | IC50 (P. falciparum (NF54); [3]) [µM] | IC50 [1] [µM] | IC50 (hHDAC6) [µM] | further results |
| --- | --- | --- | --- | --- | --- |
| O=C(NO)c1ccc(Cn2c3c(c4ccccc42)C[S+]([O-])CC3)cc1 (racemic) [Compound 1j] | 1.3 | 1.28 | > 282 | 0.014 | – |
| O=C(NO)c1ccc(Cn2c3c(c4cc(F)ccc42)C[S+]([O-])CC3)cc1 (racemic) [Compound 1k] | 0.8 | – | > 269 | – | – |
| O=C(NO)c1ccc(CN2c3cc(Cl)ccc3S(=O)(=O)CC3CCCC32)cc1 (racemic) [Compound 3e] | – | – | 35.4 | 0.068 | – |
| C[C@H]1[C@H](OC(=O)CCC(=O)O)O[C@@H]2O[C@@]3(C)CC[C@H]4[C@H](C)CC[C@@H]1[C@@]24OO3 [Artesunate, artesunate, reference compound] | – | – | – | – | IC50 (P. falciparum (Dd2); Plasmodium falciparum, chloroquine-resistant (CQR) P. falciparum strain Dd2, asexual erythrocyte stages, pLDH assay): 0.016 µM; IC50 (P. falciparum (NF54); Plasmodium falciparum, chloroquine-sensitive (CQS) P. falciparum strain NF54, asexual erythrocyte stages, pLDH assay): < 0.01 µM |
| CCN(CC)CCCC(C)Nc1ccnc2cc(Cl)ccc12 (stereo not shown) [Chloroquine, chloroquine, reference compound] | – | – | – | – | IC50 (P. falciparum (Dd2); Plasmodium falciparum, DD2, Erythrocyte): 0.175 µM; IC50 (P. falciparum (NF54); Plasmodium falciparum, NF54, Erythrocyte): 0.01 µM |
| O=C(NO)c1ccc(Cn2c3c(c4ccccc42)CSCC3)cc1 [Compound 1a] | – | 37.5 | – | 0.015 | – |
| COc1cc(C(=O)NO)ccc1Cn1c2c(c3ccccc31)CSCC2 [Compound 1b] | – | 14 | – | – | – |
| O=C(NO)c1ccc(Cn2c3c(c4cc(F)ccc42)CSCC3)cc1 [Compound 1c] | 3.1 | 2.2 | 105 | 0.022 | – |
| COc1cc(C(=O)NO)ccc1Cn1c2c(c3cc(F)ccc31)CSCC2 [Compound 1d] | – | 23.2 | – | – | – |
| O=C(NO)c1ccc(Cn2c3c(c4ccccc42)CS(=O)(=O)CC3)cc1 [Compound 1e] | – | 10.8 | – | 0.002 | – |
| COc1cc(C(=O)NO)ccc1Cn1c2c(c3ccccc31)CS(=O)(=O)CC2 [Compound 1f] | – | 21 | – | 2 | – |
| O=C(NO)c1ccc(Cn2c3c(c4cc(F)ccc42)CS(=O)(=O)CC3)cc1 [Compound 1g] | – | 15.8 | – | 0.004 | – |
| COc1cc(C(=O)NO)ccc1Cn1c2c(c3cc(F)ccc31)CS(=O)(=O)CC2 [Compound 1h] | – | 32.7 | – | 1.3 | – |
| O=C(NO)c1ccc(Cn2c3c(c4cc(Br)ccc42)CS(=O)(=O)CC3)cc1 [Compound 1i] | – | – | 109 | – | – |
| O=C(NO)c1cccc(Cn2c3c(c4ccccc42)CSCC3)c1 [Compound 1n] | 2.18 | 1.48 | > 295 | – | – |
| O=C(NO)c1cccc(Cn2c3c(c4cc(F)ccc42)CSCC3)c1 [Compound 1o] | 1.44 | 1.32 | 48.1 | – | – |
| O=C(NO)c1cccc(Cn2c3c(c4ccccc42)CS(=O)(=O)CC3)c1 [Compound 1p] | – | 5.45 | – | – | – |
| O=C(NO)c1cccc(Cn2c3c(c4cc(F)ccc42)CS(=O)(=O)CC3)c1 [Compound 1q] | – | 7.84 | – | – | – |
| O=C(NO)c1cccc(Cn2c3c(c4cc(-c5ccccc5)ccc42)CS(=O)(=O)CC3)c1 [Compound 1r] | – | 8.13 | – | – | – |
| CC[C@H]1CN2CCc3cc(OC)c(OC)cc3[C@@H]2C[C@@H]1C[C@H]1NCCc2cc(OC)c(OC)cc21 [Emetine, reference compound] | – | – | – | – | IC50 ([1]; Cricetulus griseus): 0.112 µM |

Further lines, with some results ahead:

| IC50 (P. falciparum (Dd2); [2]) [µM] | IC50 (P. falciparum (NF54); [3]) [µM] | Structure (SMILES) | IC50 [1] [µM] | IC50 (hHDAC6) [µM] | further results |
| --- | --- | --- | --- | --- | --- |
| > 2.48 | > 2.48 | O=C(NO)c1ccc(CN2c3cc(Cl)ccc3SCC3CCCC32)cc1 (racemic) [Compound 3b] | 41.4 | 0.65 | – |
| > 2.29 | 1.53 | O=C(NO)c1ccc(CN2c3cc(C(F)(F)F)ccc3SCC3CCCC32)cc1 (racemic) [Compound 3c] | 61.5 | 0.2 | – |
| 0.7 | 0.87 | O=C(NO)c1ccc(CN2c3cc(C(F)(F)F)ccc3S(=O)(=O)CC3CCCC32)cc1 (racemic) [Compound 3f] | 56.8 | – | – |
| 1.57 | > 2.48 | O=C(NO)c1ccc(CN2c3cc(Cl)ccc3SCC3CCCC32)cc1 (racemic) [Compound 3i] | 50.9 | 0.16 | – |
| 2.13 | 1.6 | O=C(NO)c1ccc(NCc2csc3ccccc23)cc1 [Compound 2a] | 12.7 | 0.014 | – |
| – | 32.4 | O=C(NO)c1ccc(N(Cc2ccccc2)Cc2csc3ccccc23)cc1 [Compound 2b] | – | – | – |
| 2.4 | 1.02 | O=C(NO)c1ccc(NCc2csc3ccc(Br)cc23)cc1 [Compound 2c] | 31 | 0.037 | – |
| – | 17.8 | O=C(NO)c1ccc(N(Cc2ccccc2)Cc2csc3ccc(Br)cc23)cc1 [Compound 2d] | – | – | – |
| – | 5.07 | O=C(NO)c1ccc(NCc2csc3ccc(-c4ccccc4)cc23)cc1 [Compound 2e] | – | – | – |
| – | 5.75 | O=C(NO)c1ccc(N(Cc2ccccc2)Cc2csc3ccc(-c4ccccc4)cc23)cc1 [Compound 2f] | – | – | – |
| 1.58 | 1.3 | O=C(NO)c1ccc(NCc2csc3cc(Br)ccc23)cc1 [Compound 2g] | 46.1 | 0.064 | – |
| – | 8.45 | O=C(NO)c1ccc(N(Cc2ccccc2)Cc2csc3cc(Br)ccc23)cc1 [Compound 2h] | – | – | – |
| 1.14 | 3.34 | O=C(NO)c1ccc(NCc2csc3cc(-c4ccccc4)ccc23)cc1 [Compound 2i] | 31.2 | – | – |
| – | 5.02 | O=C(NO)c1ccc(N(Cc2ccccc2)Cc2csc3cc(-c4ccccc4)ccc23)cc1 [Compound 2j] | – | – | – |
| – | 36.8 | Cc1cc(C(=O)NO)ccc1NCc1csc2ccccc12 [Compound 2k] | – | – | – |
| > 2.7 | 1.59 | O=C(NO)c1ccc(CN2c3ccccc3SCC3CCCC32)cc1 (stereo not shown) [Compound 3a] | 104 | 0.036 | – |
| 0.94 | – | O=C(NO)c1ccc(CN2c3ccccc3S(=O)(=O)CC3CCCC32)cc1 (stereo not shown) [Compound 3d] | 108 | – | – |
| > 2.6 | 1.25 | O=C(NO)c1ccc(CN2c3ccccc3[S+]([O-])CC3CCCC32)cc1 (stereo not shown) [Compound 3g] | 173 | 0.006 | – |
| > 2.61 | > 2.61 | O=C(NO)c1ccc(CN2c3ccccc3SCC3CCCCC32)cc1 (stereo not shown) [Compound 3h] | 87 | 0.033 | – |
| > 2.61 | > 2.61 | O=C(NO)c1ccc(CN2c3ccccc3SCC3CCCCC32)cc1 (stereo not shown) [Compound 3j] | 61.7 | 0.092 | – |
